Experiment [1] concerns the target Sodium-dependent noradrenaline transporter (Homo sapiens, UniProt P23975). Nature of the experiment: GPCRScan assay: inhibition of NET. The arrangement: radioligand conc. used [nm] 1.3 – 5.0, parental cells stable HEK.
Experiment [2] has as its target RAC-alpha serine/threonine-protein kinase (Homo sapiens) (UniProt P31749). The conditions noted are these: Compound concentration 1000.0 nM.
In experiment [3] the target is 5-hydroxytryptamine receptor 1E (Homo sapiens) (UniProt P28566). The conditions noted are these: Compound concentration 10.0 uM.
Experiment [4] has as its target Serine/threonine-protein kinase Sgk2 (Homo sapiens) (UniProt Q9HBY8). The conditions noted are these: Compound concentration 1000.0 nM.
Experiment [5] has as its target Tyrosine-protein kinase Yes (Homo sapiens) (UniProt P07947). Conditions: Compound concentration 1000.0 nM.
Experiment [6] addresses Platelet-derived growth factor receptor alpha (Homo sapiens) (UniProt P16234). Conditions: Compound concentration 1000.0 nM.
For experiment [7], the target named is Dual specificity protein kinase CLK1 (Homo sapiens) (UniProt P49759). The conditions noted are these: Compound concentration 1000.0 nM.
The target in experiment [8] is MAP kinase-interacting serine/threonine-protein kinase 1 (Homo sapiens) (UniProt Q9BUB5). Conditions: Compound concentration 1000.0 nM.
Experiment [9] concerns the target Receptor-interacting serine/threonine-protein kinase 2 (Homo sapiens) (UniProt O43353). The conditions noted are these: Compound concentration 1000.0 nM.
Experiment [10] deals with Cytoplasmic tyrosine-protein kinase BMX (Homo sapiens) (UniProt P51813). Conditions: Compound concentration 1000.0 nM.
Experiment [11] concerns the target Serine/threonine-protein kinase Nek4 (Homo sapiens) (UniProt P51957). The conditions noted are these: Compound concentration 1000.0 nM.
Experiment [12] concerns the target 3-phosphoinositide-dependent protein kinase 1 (Homo sapiens) (UniProt O15530). Conditions: Compound concentration 1000.0 nM.
In experiment [13] the target is Activated CDC42 kinase 1 (Homo sapiens) (UniProt Q07912). Conditions: Compound concentration 1000.0 nM.
The target of experiment [14] is Serine/threonine-protein kinase MRCK beta (Homo sapiens) (UniProt Q9Y5S2). The conditions noted are these: Compound concentration 1000.0 nM.
Experiment [15] deals with Hormonally up-regulated neu tumor-associated kinase (Homo sapiens) (UniProt P57058). Conditions: Compound concentration 1000.0 nM.
The target in experiment [16] is Tyrosine-protein kinase receptor UFO (Homo sapiens) (UniProt P30530). The conditions noted are these: Compound concentration 1000.0 nM.
For experiment [17], the target named is Mitogen-activated protein kinase kinase kinase 13 (Homo sapiens) (UniProt O43283). Conditions: Compound concentration 1000.0 nM.
The target in experiment [18] is Amyloid-beta precursor protein (Homo sapiens, UniProt P05067). Kind of experiment: Radioligand Binding Assay.
The target of experiment [19] is Tyrosine-protein kinase Mer (Homo sapiens) (UniProt Q12866). The conditions noted are these: Compound concentration 1000.0 nM.
Experiment [20] deals with Dual specificity mitogen-activated protein kinase kinase 1 (Homo sapiens) (UniProt Q02750). Conditions: Compound concentration 1000.0 nM.
The target of experiment [21] is Phosphatidylinositol 4-phosphate 3-kinase C2 domain-containing subunit beta (Homo sapiens) (UniProt O00750). The conditions noted are these: Compound concentration 1000.0 nM.
Experiment [22] addresses SRSF protein kinase 3 (Homo sapiens) (UniProt Q9UPE1). Conditions: Compound concentration 1000.0 nM.
The target of experiment [23] is Mitogen-activated protein kinase 6 (Homo sapiens) (UniProt Q16659). The conditions noted are these: Compound concentration 1000.0 nM.
Experiment [24] has as its system Epidermal growth factor receptor (Homo sapiens), P00533 [UNDEFINED MUTATION]. The conditions noted are these: Compound concentration 1000.0 nM.
Experiment [25] concerns the target Serine/threonine-protein kinase Nek2 (Homo sapiens) (UniProt P51955). Conditions: Compound concentration 1000.0 nM.
Experiment [26] concerns the target cGMP-dependent protein kinase 1 (Homo sapiens) (UniProt Q13976). The conditions noted are these: Compound concentration 1000.0 nM.
Experiment [27] has as its target Atypical kinase COQ8A, mitochondrial (Homo sapiens) (UniProt Q8NI60). The conditions noted are these: Compound concentration 1000.0 nM.
Experiment [28] addresses Serine/threonine-protein kinase pim-3 (Homo sapiens) (UniProt Q86V86). Conditions: Compound concentration 1000.0 nM.
Experiment [29] concerns the target Tyrosine-protein kinase BTK (Homo sapiens) (UniProt Q06187). Conditions: Compound concentration 1000.0 nM.
Experiment [30] concerns the target Cyclin-dependent kinase 4 (Homo sapiens) (UniProt P11802). The conditions noted are these: Compound concentration 1000.0 nM.
For experiment [31], the system named is Epidermal growth factor receptor (Homo sapiens), P00533 [L858R]. The conditions noted are these: Compound concentration 1000.0 nM.
Experiment [32] concerns the target Myosin light chain kinase (Homo sapiens) (UniProt Q32MK0). The conditions noted are these: Compound concentration 1000.0 nM.
In experiment [33] the target is Serine/threonine-protein kinase pim-2 (Homo sapiens) (UniProt Q9P1W9). Conditions: Compound concentration 1000.0 nM.
The target of experiment [34] is Serine/threonine-protein kinase PAK 4 (Homo sapiens) (UniProt O96013). The conditions noted are these: Compound concentration 1000.0 nM.
Experiment [35] addresses Serine/threonine-protein kinase Sgk3 (Homo sapiens) (UniProt Q96BR1). The conditions noted are these: Compound concentration 1000.0 nM.
Experiment [36] concerns the target Serine/threonine-protein kinase NLK (Homo sapiens) (UniProt Q9UBE8). Conditions: Compound concentration 1000.0 nM.
The target of experiment [37] is Serine/threonine-protein kinase D1 (Homo sapiens) (UniProt Q15139). Conditions: Compound concentration 1000.0 nM.
In experiment [38] the target is Dual specificity protein kinase TTK (Homo sapiens) (UniProt P33981). The conditions noted are these: Compound concentration 1000.0 nM.
Experiment [39] has as its target Serine/threonine-protein kinase SIK2 (Homo sapiens) (UniProt Q9H0K1). Conditions: Compound concentration 1000.0 nM.
For experiment [40], the target named is Serine/threonine-protein kinase mTOR (Homo sapiens) (UniProt P42345). The conditions noted are these: Compound concentration 1000.0 nM.
In experiment [41] the target is Insulin receptor (Homo sapiens) (UniProt P06213). The conditions noted are these: Compound concentration 1000.0 nM.
The target in experiment [42] is cGMP-dependent protein kinase 2 (Homo sapiens) (UniProt Q13237). The conditions noted are these: Compound concentration 1000.0 nM.
Experiment [43] has as its target Epithelial discoidin domain-containing receptor 1 (Homo sapiens) (UniProt Q08345). The conditions noted are these: Compound concentration 1000.0 nM.
Experiment [44] deals with Serine/threonine-protein kinase 25 (Homo sapiens) (UniProt O00506). The conditions noted are these: Compound concentration 1000.0 nM.
For experiment [45], the target named is Phosphatidylinositol 5-phosphate 4-kinase type-2 gamma (Homo sapiens) (UniProt Q8TBX8). The conditions noted are these: Compound concentration 1000.0 nM.

For orientation: Ki means the equilibrium dissociation constant of an inhibitor or competing ligand from its target. As usually defined, the inhibition is the change of the read-out against control, counted positive when it falls. By IC50 is commonly meant the concentration that inhibits the measured activity by half.

SMILES strings stand for the structures. Activity calls are given as the source filed them. The rule behind the calls is not given here.

Sequence of Dual specificity protein kinase CLK1 (Homo sapiens) (P49759 whole entry, looked up): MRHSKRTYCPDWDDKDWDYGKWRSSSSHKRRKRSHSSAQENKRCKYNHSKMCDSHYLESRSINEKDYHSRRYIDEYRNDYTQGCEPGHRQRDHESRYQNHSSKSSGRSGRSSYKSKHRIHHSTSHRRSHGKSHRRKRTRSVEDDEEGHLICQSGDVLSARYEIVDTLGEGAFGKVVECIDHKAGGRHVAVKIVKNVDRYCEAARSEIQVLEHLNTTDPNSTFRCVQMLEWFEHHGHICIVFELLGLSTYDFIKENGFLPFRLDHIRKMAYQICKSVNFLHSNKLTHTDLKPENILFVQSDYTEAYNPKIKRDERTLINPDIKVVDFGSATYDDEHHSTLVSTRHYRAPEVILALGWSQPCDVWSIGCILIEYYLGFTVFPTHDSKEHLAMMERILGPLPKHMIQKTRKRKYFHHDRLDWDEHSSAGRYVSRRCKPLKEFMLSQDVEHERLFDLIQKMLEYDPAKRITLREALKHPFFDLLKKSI
Sequence of Tyrosine-protein kinase Yes (Homo sapiens) (P07947 2-543 limits assumed): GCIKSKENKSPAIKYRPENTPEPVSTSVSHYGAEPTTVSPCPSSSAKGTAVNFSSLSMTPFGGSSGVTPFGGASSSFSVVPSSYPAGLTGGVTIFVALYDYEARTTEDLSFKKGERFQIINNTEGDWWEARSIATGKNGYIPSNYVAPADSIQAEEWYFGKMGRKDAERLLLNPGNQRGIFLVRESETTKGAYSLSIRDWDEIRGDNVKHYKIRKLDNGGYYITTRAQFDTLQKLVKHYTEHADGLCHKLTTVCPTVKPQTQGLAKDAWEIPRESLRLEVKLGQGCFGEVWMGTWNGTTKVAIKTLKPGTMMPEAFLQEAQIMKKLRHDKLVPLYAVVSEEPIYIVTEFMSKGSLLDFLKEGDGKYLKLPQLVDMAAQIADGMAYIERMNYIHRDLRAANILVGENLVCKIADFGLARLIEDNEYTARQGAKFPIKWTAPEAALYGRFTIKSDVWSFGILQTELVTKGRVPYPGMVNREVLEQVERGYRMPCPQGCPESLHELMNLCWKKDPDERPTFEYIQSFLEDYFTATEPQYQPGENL
Sequence of Serine/threonine-protein kinase pim-2 (Homo sapiens) (Q9P1W9 whole entry, looked up): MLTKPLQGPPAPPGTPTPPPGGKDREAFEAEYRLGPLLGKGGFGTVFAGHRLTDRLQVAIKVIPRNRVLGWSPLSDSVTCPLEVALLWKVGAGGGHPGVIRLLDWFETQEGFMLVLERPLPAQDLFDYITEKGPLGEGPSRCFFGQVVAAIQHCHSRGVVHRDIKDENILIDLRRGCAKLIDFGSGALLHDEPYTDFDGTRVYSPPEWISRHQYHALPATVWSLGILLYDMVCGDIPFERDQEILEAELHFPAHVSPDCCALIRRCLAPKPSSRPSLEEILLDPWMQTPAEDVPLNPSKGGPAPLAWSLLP
Sequence of Serine/threonine-protein kinase MRCK beta (Homo sapiens) (Q9Y5S2 whole entry): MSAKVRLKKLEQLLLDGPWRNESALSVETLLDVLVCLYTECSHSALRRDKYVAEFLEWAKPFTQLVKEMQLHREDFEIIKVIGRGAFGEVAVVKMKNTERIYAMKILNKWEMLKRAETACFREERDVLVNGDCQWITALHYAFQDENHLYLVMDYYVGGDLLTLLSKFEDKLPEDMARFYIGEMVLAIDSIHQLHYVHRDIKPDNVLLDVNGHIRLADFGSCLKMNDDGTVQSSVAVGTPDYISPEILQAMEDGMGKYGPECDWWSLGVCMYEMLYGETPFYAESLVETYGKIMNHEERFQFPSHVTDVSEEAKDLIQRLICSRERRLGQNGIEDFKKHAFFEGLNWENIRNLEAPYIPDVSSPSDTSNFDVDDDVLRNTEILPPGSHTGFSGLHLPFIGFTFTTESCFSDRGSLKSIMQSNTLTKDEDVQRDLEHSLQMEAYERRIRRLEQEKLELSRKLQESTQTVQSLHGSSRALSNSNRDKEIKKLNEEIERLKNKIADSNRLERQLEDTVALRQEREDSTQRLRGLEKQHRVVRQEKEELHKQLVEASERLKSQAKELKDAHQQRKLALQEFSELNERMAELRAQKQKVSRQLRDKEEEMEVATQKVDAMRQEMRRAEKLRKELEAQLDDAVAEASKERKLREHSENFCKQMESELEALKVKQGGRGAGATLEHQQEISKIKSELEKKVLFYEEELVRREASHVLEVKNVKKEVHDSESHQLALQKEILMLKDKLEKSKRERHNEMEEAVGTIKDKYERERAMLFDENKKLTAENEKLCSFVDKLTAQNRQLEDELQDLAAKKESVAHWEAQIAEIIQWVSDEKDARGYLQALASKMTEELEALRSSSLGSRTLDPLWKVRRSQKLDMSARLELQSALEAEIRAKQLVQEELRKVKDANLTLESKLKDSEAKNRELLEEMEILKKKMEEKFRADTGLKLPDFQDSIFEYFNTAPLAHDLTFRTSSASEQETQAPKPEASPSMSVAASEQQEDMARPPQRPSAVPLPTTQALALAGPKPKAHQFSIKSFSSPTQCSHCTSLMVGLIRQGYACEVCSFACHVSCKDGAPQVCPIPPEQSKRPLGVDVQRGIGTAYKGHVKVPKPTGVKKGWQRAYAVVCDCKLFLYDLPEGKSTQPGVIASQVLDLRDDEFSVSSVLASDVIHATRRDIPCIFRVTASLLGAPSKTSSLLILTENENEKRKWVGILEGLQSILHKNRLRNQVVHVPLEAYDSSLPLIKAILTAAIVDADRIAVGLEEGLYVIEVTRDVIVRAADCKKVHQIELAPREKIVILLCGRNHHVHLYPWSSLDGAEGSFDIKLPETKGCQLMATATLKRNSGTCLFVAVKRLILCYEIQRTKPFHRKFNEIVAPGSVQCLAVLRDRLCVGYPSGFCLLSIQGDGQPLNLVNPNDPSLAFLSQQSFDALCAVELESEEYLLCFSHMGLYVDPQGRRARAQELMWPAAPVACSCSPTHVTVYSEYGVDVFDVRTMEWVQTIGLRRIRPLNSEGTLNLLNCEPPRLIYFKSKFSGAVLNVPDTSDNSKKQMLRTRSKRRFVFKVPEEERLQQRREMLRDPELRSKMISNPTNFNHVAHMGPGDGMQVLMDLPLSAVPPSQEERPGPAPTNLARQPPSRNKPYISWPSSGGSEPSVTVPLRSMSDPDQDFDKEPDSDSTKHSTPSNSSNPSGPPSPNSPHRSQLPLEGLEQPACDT
Sequence of Serine/threonine-protein kinase PAK 4 (Homo sapiens) (O96013 whole entry, looked up): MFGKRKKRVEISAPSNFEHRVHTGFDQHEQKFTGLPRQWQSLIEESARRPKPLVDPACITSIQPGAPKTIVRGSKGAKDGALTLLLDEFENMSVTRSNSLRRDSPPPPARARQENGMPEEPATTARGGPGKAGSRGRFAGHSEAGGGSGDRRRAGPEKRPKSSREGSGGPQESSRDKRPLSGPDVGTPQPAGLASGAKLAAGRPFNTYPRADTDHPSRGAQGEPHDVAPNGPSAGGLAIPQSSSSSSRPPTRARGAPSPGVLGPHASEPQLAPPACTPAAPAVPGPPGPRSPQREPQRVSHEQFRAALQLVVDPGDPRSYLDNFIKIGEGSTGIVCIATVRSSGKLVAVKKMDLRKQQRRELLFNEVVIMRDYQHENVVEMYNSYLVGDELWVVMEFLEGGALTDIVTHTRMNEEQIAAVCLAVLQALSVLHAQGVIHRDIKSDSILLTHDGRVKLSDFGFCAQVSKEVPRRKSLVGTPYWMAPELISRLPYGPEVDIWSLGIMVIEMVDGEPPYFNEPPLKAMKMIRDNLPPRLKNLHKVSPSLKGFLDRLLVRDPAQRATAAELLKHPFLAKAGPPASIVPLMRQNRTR
Sequence of Serine/threonine-protein kinase 25 (Homo sapiens) (O00506 whole entry, looked up): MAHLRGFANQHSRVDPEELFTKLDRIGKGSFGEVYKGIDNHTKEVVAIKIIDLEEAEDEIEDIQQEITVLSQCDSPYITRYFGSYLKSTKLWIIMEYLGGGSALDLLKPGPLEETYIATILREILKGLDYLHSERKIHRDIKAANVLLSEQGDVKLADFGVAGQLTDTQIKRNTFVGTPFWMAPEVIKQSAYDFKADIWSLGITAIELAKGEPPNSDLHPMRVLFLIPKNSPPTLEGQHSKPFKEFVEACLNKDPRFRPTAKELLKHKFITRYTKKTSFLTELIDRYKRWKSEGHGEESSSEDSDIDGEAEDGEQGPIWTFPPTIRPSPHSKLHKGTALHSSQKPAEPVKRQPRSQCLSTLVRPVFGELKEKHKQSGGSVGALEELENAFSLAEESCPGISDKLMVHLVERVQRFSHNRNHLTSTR
Sequence of RAC-alpha serine/threonine-protein kinase (Homo sapiens) (P31749 whole entry): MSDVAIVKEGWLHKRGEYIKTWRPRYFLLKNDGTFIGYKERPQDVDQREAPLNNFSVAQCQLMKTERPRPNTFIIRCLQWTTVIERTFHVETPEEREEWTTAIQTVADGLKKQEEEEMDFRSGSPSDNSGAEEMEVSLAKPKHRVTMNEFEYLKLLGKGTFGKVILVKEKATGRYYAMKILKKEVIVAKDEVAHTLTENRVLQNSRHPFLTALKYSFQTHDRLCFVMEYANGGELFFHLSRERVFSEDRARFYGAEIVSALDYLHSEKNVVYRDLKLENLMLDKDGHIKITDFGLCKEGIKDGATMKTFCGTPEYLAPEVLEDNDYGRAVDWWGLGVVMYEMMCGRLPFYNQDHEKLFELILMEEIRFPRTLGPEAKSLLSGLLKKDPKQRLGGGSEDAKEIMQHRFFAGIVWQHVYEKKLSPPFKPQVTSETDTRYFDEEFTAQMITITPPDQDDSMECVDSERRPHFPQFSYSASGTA
Sequence of Serine/threonine-protein kinase Sgk2 (Homo sapiens) (Q9HBY8 whole entry): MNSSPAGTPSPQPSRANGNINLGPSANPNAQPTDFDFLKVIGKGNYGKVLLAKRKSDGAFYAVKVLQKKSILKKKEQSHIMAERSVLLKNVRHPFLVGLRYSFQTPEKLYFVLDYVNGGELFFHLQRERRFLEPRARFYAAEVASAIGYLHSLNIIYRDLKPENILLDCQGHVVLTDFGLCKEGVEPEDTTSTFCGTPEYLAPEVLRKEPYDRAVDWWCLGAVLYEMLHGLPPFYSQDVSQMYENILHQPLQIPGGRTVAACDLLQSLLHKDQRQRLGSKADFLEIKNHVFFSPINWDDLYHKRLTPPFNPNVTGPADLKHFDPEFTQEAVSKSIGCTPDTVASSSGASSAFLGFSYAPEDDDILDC

Take `CC(C)(C)OC(=O)N1CCCC1CNC1CCC(c2cc(F)ccc2F)(S(=O)(=O)c2ccc(Cl)cc2)CC1` (stereo not given) [GSI-NC]: the Ki in [1] is 2430 nM.

On to `O=S(=O)(NC1CCC(c2cc(F)ccc2F)(S(=O)(=O)c2ccc(Cl)cc2)CC1)C(F)(F)F` (stereo not given) [MRK-560], for which the residual activity is 5% in [2]; 93% in experiment [4]; 89% in experiment [5]; 100% in experiment [6]; 78% in [7]; 93% in experiment [8]. Besides, the residual activity in experiment [9] is 84%; in experiment [10], 93%; in experiment [11], 100%; in [12] it was 100%; in experiment [13], 96%; in experiment [14] it was 100%. In addition, the residual activity is 100% in experiment [15]; 100% in experiment [16]; 91% in experiment [17]; 99% in [19]; 100% in experiment [20]; 100% in experiment [21]. Also, the residual activity was 100% in [22]; 100% in experiment [23]; 0% in [24]; 98% in experiment [25]; 100% in experiment [26]; 99% in experiment [27]. Besides, the residual activity in [28] was 100%; in experiment [29] it was 100%; in experiment [30], 81%; in [31], 100%; in experiment [32] it was 86%; in experiment [33], 100%. The residual activity in experiment [34] was 100%; in experiment [35], 89%; in experiment [36] it was 100%; in experiment [37], 100%; in experiment [38], 70%; in experiment [39], 100%. In addition, the residual activity in experiment [40] was 94%; in [41], 95%; in experiment [42], 100%; in experiment [43], 100%; in experiment [44] it was 100%; in experiment [45], 100%. Further, in experiment [3], the inhibition was -8.31%. The half-inhibitory concentration (IC50) in experiment [18] is 0.65 nM (active).
